In one test the target is T1, ALK5 (Homo sapiens, UniProt P36897).
T1 construct: purchased Reaction Biology Corp (Malvern, Pa.)
T1 sequence (P36897 34-503): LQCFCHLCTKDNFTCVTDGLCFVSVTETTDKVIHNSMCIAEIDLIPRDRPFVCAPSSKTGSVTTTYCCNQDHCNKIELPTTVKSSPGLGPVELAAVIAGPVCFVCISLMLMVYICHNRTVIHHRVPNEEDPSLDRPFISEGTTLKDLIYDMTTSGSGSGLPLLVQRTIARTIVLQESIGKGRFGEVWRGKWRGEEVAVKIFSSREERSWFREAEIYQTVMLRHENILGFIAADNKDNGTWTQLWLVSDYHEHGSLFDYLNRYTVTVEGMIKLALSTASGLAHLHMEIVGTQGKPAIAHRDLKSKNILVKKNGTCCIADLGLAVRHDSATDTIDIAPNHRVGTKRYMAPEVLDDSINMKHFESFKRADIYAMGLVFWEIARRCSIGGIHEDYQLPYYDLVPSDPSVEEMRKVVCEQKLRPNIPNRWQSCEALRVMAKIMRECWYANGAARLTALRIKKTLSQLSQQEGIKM
The experiment in a line: ALK5 enzyme inhibition assay (casein substrate, 10 uM ATP, 33P-ATP, filter-binding; Reaction Biology Corp). Type of test: biochemical. Conditions: Table 11. The method, boiled down:
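Kinase reaction with casein (1 mg/mL) and 10 uM ATP; compounds in DMSO preincubated with kinase 20 min at room temperature, then 33P-ATP added and reacted 2 h at room temperature. Filter-binding radioactivity read-out as percent remaining activity versus DMSO vehicle; IC50 from curve fits.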

Test [1] has as its system TGFβ/SMAD Signaling Pathway SBE reporter cell line. Kind of test: TGFb reporter assay in HEK293 SBE-LUC reporter cells (luciferase). The test is classed as cell-based. Conditions: Homo sapiens, key of the table says IC50, read-out: EC50 (the source's name). The method, boiled down:
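HEK293 SBE-luciferase reporter cells in MEM with 0.5% FBS were pretreated with compound for 5–6 h at 37 °C, then stimulated with TGFb (12.5 ng/mL stock added) for 18 h. Luminescence was read after luciferase substrate addition.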

Test [2] concerns HEK293 SBE-LUC reporter cells transfected to stably express full length human ASGR1. The experiment in a line: Cell reporter assay of anti-ASGR1-ALK5 inhibitor conjugates: TGFβ1-mediated luciferase expression. The test is classed as cell-based. The conditions noted are these: inhibition of TGFβ1-mediated luciferase expression, 6 h preincubation, human TGFβ1 1.6 ng/ml, further 18 h. As for the experimental part: Anti-ASGR1 antibodies conjugated to an ALK5 inhibitor were tested via a cell reporter assay. Briefly, HEK293 SBE-LUC reporter cells transfected to stably express full length human ASGR1 were seeded in 96 well plates at 40,000 cells/well in an assay media of minimum essential media containing 0.5% fetal bovine serum, 1% nonessential amino acids, 1% sodium pyruvate and 1% Pen/Strep. Anti-ASGR1-ALK5 inhibitor conjugates and controls were added to wells in a dose titration ranging from 5 μM to 0.064 nM to HEK293 SBE-LUC and ASGR1-HEK293 SBE-LUC cells. After incubating for 6 hours at 37° C. in a 5% CO2 environment, human TGFβ 1 (PeproTech Inc.) was added to a final concentration of 1.6 ng/ml followed by an additional 18 hour incubation under the same conditions. Luciferase STEADY-GLO® reagent (Promega Corporation) was added at 70 μl/well and incubated with shaking for 10 minutes. Luciferase activity was determined by measuring luminescence with an ENVISION® Plate Reader (Perkin-Elmer Inc.). Data were fit with a four-parameter non-linear regression to calculate IC50 values using Prism Software v7.04 (GraphPad Inc.).

This is an account of results in patent US20210130473A1, “TGFßR1 INHIBITOR-ASGR ANTIBODY CONJUGATES AND USES THEREOF” (Silverback Therapeutics, Inc., priority 2019, published 2021).

Molecules are shown by their SMILES.

Regarding `Cc1cccc(-c2nc(CNCCc3c(F)cccc3F)[nH]c2-c2ccc3ncnn3c2)n1` [Compound 60], the IC50 at ALK5 is 0.1 to 50 nM; in test [1], 0.1 to 10 nM; in test [2], 13.4 nM.

For the molecule `Cc1cccc(-c2nc(CNCc3ccccc3C)[nH]c2-c2ccc3ncccc3n2)n1` [Compound 83], the IC50 at ALK5 was in the range of 50 to 100 nM; in test [1], 0.1 to 10 nM.

`COc1ccccc1CCNCc1nc(-c2cccc(C)n2)c(-c2ccc3ncccc3n2)[nH]1` [Compound 84]: the IC50 on ALK5 lay within 100 to 1000 nM; in test [1], 0.1 to 10 nM.

Turning to `Cc1cccc(-c2nc(CNCCN(C)c3ccccc3)[nH]c2-c2ccc3ncccc3n2)n1` [Compound 85], the IC50 lay within 50 to 100 nM on ALK5 and 0.1 to 10 nM in test [1].

In the case of `Cc1cccc(-c2nc(CNCc3ccccc3C)[nH]c2-c2ccc3nccnc3c2)n1` [Compound 86], the IC50 at ALK5 lay in the range of 0.1 to 50 nM; in test [1] it was 0.1 to 10 nM.

For the molecule `COc1ccccc1CCNCc1nc(-c2cccc(C)n2)c(-c2ccc3nccnc3c2)[nH]1` [Compound 87], the results for the IC50 (at ALK5; in test [1]) were 0.1 to 50 nM and 0.1 to 10 nM, respectively.

With `Cc1cccc(-c2nc(CNCCN(C)c3ccccc3)[nH]c2-c2ccc3nccnc3c2)n1` [Compound 88], the IC50 lay within 0.1 to 50 nM at ALK5 and 0.1 to 10 nM in test [1].

As for `Cc1cccc(-c2nc(CNCc3ccccc3)[nH]c2-c2ccc3ncccc3c2)n1` [Compound 90], the IC50 fell in the range of 50 to 100 nM on ALK5 and 0.1 to 10 nM in test [1].

Regarding `Cc1cccc(-c2nc(CNCc3ccccc3-c3ccccc3)[nH]c2-c2ccc3ncccc3c2)n1` [Compound 91], the IC50 on ALK5 fell in the range of 100 to 1000 nM; in test [1], 10 to 100 nM.
